From patent US9089486B2, “Process for the preparation of a pharmaceutical composition comprising ezetimibe” (LEK PHARMACEUTICALS D.D., priority 2009, dated 2015)
Where two headings read alike, the source gives them in different places.

How the values were obtained:
[1] = Particle size of ezetimibe by Malvern Mastersizer; format: physicochemical; conditions: ezetimibe particles, lactose in the blend dissolved
Source text: After mixing of blend 2 in a high shear mixer, a good particle distribution could be reached. The size of the ezetimibe particles was not essentially changed.

[2] = cited from earlier work; for solubility in ethanol, methanol, and acetone: organic solvents
[3] = ambient temperature; cited from earlier work

O=C1[C@H](CC[C@H](O)c2ccc(F)cc2)[C@@H](c2ccc(O)cc2)N1c1ccc(F)cc1 [Ezetimibe, ezetimibe]
Particle size d(0.1) [1]: 0.43 μm | Particle size d(0.5) [1]: 7.54 μm | Particle size d(0.9) [1]: 16.87 μm | solubility in ethanol, methanol, and acetone [2]: freely to very soluble | solubility in ethanol, methanol, and acetone ([2]; listed as ezetimibe): soluble | solubility in water [2]: practically insoluble | solubility in water ([2]; listed as ezetimibe): poorly soluble | stability [3]: stable
